*1 amine or outer side, *2 acyl side, *3 side chain or, on linkers, in order; H or OH if unused. Where a SMILES comes first, the peptide text is derived from it. Bridges are numbered along the chain shown (N, C = ends). Roman numbers before positions name the chains, in order. [ ]: non-standard residue; d: D form. The star is where a group is joined. C18 diacid = O=C(O)CCCCCCCCCCCCCCCCC(=O)*; γGlu = O=C(O)[C@H](CCC(=O)[*:2])N[*:1]; Desaminohistidyl = O=C(CCc1c[nH]cn1)*; Aib = CC(C)(N)C(=O)O
Target: T1, human glucagon receptor (Homo sapiens, UniProt P47871)
T1 construct: expressed in transfected cells; host or cells: membranes of BHK cells, clone BHK hGCGR A3*25
T1 sequence (P47871 26-477): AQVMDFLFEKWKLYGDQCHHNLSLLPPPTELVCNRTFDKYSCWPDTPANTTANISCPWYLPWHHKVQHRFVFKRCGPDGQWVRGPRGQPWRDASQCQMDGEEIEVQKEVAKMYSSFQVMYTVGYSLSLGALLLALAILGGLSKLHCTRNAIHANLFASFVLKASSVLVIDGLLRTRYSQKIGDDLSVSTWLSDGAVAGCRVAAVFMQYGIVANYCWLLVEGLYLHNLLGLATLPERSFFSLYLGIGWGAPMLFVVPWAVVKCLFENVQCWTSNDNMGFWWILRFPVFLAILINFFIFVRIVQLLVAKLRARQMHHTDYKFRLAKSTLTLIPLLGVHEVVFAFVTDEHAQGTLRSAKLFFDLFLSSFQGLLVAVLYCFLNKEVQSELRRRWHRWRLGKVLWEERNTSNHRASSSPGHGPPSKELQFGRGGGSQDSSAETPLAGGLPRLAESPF
Assay: Assay (I)(b): glucagon receptor potency, CRE luciferase reporter gene assay in BHK cells
Assay type: cell-based
Conditions: BHK cells expressing human glucagon receptor, read-out: EC50 GlucagonR
Description: Assay (I): GLP-1 and Glucagon Receptor Potency The purpose of this example was to test the activity or potency, of the GLP-1 derivatives of the invention, in vitro. The in vitro potency is the measure of human GLP-1 receptor (GLP-1R) or glucagon receptor (glucagonR) activation, respectively, in a whole cell assay. In vitro potency was determined by measuring the cellular response of human GLP-1 or glucagon receptor activation, respectively, in a reporter gene assay. The assay was performed in a BHK cell line that stably expresses either the human GLP-1 receptor or the human glucagon receptor and comprises the DNA for the cAMP response element (CRE) coupled to a promoter and the gene for firefly luciferase (CRE luciferase). […] When assay incubation was completed, the luciferase substrate (luciferin) was added and the enzyme converted luciferin to oxyluciferin and produces bioluminescence. The luminescence was measured as the readout for the assay. […] The cells were counted and adjusted to 5×10EE3 cells/50 μl (1×10EE5 cells/ml) in Assay Medium. […] Each assay plate was read in a Perkin Elmer TopCount NXT instrument. […] EC50 values were calculated by the software and reported in pM.

**Q.** With `CC[C@H](C)[C@H](NC(=O)[C@H](Cc1ccccc1)NC(=O)[C@H](CCC(=O)O)NC(=O)[C@H](CCCNC(=N)N)NC(=O)[C@H](C)NC(=O)[C@H](C)NC(=O)[C@H](CCC(N)=O)NC(=O)CNC(=O)[C@H](CCC(=O)O)NC(=O)[C@H](CC(C)C)NC(=O)[C@H](Cc1ccc(O)cc1)NC(=O)[C@H](CCCNC(=N)N)NC(=O)[C@H](CO)NC(=O)[C@@H](NC(=O)[C@H](CC(=O)O)NC(=O)[C@H](CO)NC(=O)[C@@H](NC(=O)[C@H](Cc1ccccc1)NC(=O)[C@@H](NC(=O)CNC(=O)[C@H](Cc1c[nH]cn1)NC(=O)C(C)(C)NC(=O)CCc1c[nH]cn1)[C@@H](C)O)[C@@H](C)O)C(C)C)C(=O)N[C@@H](C)C(=O)N[C@@H](Cc1c[nH]c2ccccc12)C(=O)N[C@@H](CC(C)C)C(=O)N[C@@H](CC(C)C)C(=O)N[C@@H](CCCCNC(=O)CNC(=O)[C@H](CO)NC(=O)[C@H](CCC(=O)O)NC(=O)CNC(=O)[C@H](CO)NC(=O)CC[C@H](NC(=O)CC[C@H](NC(=O)CCCCCCCCCCCCCCCCC(=O)O)C(=O)O)C(=O)O)C(=O)N[C@H](C(N)=O)[C@@H](C)O` [Example 8, N^ε34-[2-[[(2S)-2-[[(2S)-4-carboxy-2-[[2-[[(2S)-2-[[(4S)-4-carboxy-4-[[(4S)-4-carboxy-4-(17-carboxyheptadecanoylamino)butanoyl]amino]butanoyl]amino]-3-hydroxypropanoyl]amino]acetyl]amino]butanoyl]amino]-3-hydroxypropanoyl]amino]acetyl]-[Imp7,Aib8,His9,Arg18,Arg26,Leu33,Thr35]-GLP-1-(7-35)-peptide amide] (I: Desaminohistidyl-[Aib]HGTFTSDVSRYLEGQAAREFIAWLLKT-NH2 / II: {C18 diacid-γGlu-γGlu}-SGESG; amide I:27-II:C) as the molecule, how does the EC50 read?
**A.** 0.143 nM

From patent US9988430B2, “Stable GLP-1 based GLP-1/glucagon receptor co-agonists” (Novo Nordisk A/S, priority 2014, dated 2018)
